Assay results: ChEMBL document CHEMBL3244346, “Synthesis of spiro[isobenzofuran-1(3H),4'-piperidines] as potential central nervous system agents. 4. Central nervous system depressants” (J Med Chem, 1978)
The source made the active and inactive calls. No cut-off for these calls is given here.

Tests used:
[1] = system: Rattus norvegicus; experiment: Neuroleptic activity in ip dosed Long-Evans rat assessed as inhibition of pole-climb avoidance; assay type: functional
[2] = system: Rattus norvegicus; experiment: Neuroleptic activity in ip dosed Long-Evans rat assessed as increase in escape failure; assay type: functional
[3] = system: Canis familiaris; experiment: Non-specific toxicity in po dosed Beagle dog assessed as inhibition of apomorphine hydrochloride-induced emesis; assay type: organism-based, Canis lupus familiaris; conditions: in vivo
[4] = system: Rattus norvegicus; experiment: Neuroleptic activity in ip dosed Sprague-Dawley rat assessed as inhibition of Sidman avoidance measured for 4 to 6 hrs; assay type: functional
[5] = system: Rattus norvegicus; experiment: Neuroleptic activity in po dosed Sprague-Dawley rat assessed as inhibition of Sidman avoidance measured for 4 to 6 hrs; assay type: functional
[6] = system: Rattus norvegicus; experiment: Non-specific toxicity in ip dosed Wistar rat assessed as inhibition of amphetamine-induced circling administered 60 mins prior to amphetamine challenge; assay type: organism-based; conditions: in vivo, 1 h
[7] = system: Canis familiaris; experiment: Ratio of compound ED50 to haloperidol ED50 for non-specific toxicity in po dosed Beagle dog assessed as inhibition of apomorphine hydrochloride-induced emesis; assay type: organism-based, Canis lupus familiaris; conditions: in vivo
[8] = system: Canis familiaris; experiment: Non-specific toxicity in Beagle dog assessed as inhibition of apomorphine hydrochloride-induced emesis at 0.5 mg/kg, po; assay type: organism-based; set-up: dose 0.5 mg/kg, route oral; conditions: Canis lupus familiaris
[9] = system: Squirrel monkey; experiment: Neuroleptic activity in squirrel monkey assessed as inhibition of Sidman avoidance at 1 mg/kg, po measured for 4 hrs; assay type: functional; conditions: Saimiri sciureus, in Primates
[10] = system: Rattus norvegicus; experiment: Non-specific toxicity in ip dosed Wistar rat assessed as inhibition of d-amphetamine sulfate-induced stereotypy administered 1 hr prior to d-amphetamine sulfate challenge measured after 55 to 65 mins; assay type: organism-based; conditions: in vivo
[11] = system: Squirrel monkey; experiment: Neuroleptic activity in squirrel monkey assessed as inhibition of Sidman avoidance at 0.75 mg/kg, po measured for 4 hrs; assay type: functional; conditions: Saimiri sciureus, in Primates
[12] = system: Rattus norvegicus; experiment: Non-specific toxicity in sc dosed Wistar rat assessed as inhibition of apomorphine hydrochloride-induced stereotypy administered 1 hr prior to apomorphine hydrochloride challenge measured after 5 to 20 mins; assay type: organism-based; conditions: in vivo
[13] = species on record: Rattus norvegicus; experiment: animal or person; conditions: Sprague-Dawley, po, read-out: INH
Description: Neuroleptic activity in Sprague-Dawley rat assessed as inhibition of Sidman avoidance at 1.25 mg/kg, po relative to control

[14] = system: Squirrel monkey; experiment: Neuroleptic activity in squirrel monkey assessed as inhibition of Sidman avoidance at 10 mg/kg, po measured for 4 hrs; assay type: functional; conditions: Saimiri sciureus, in Primates
[15] = system: Rattus norvegicus; experiment: Neuroleptic activity in Sprague-Dawley rat assessed as inhibition of Sidman avoidance at 20 mg/kg, ip relative to control; assay type: functional; conditions: route intraperitoneal
[16] = system: Rattus norvegicus; experiment: Neuroleptic activity in Long-Evans rat assessed as inhibition of pole-climb avoidance at 5 mg/kg, ip relative to control; assay type: functional; conditions: route intraperitoneal
[17] = system: Rattus norvegicus; experiment: Non-specific toxicity in Wistar rat assessed as inhibition of apomorphine hydrochloride-induced stereotypy at 25 mg/kg, sc administered 1 hr prior to apomorphine hydrochloride challenge measured after 5 to 20 mins; assay type: organism-based; set-up: dose 25 mg/kg, route subcutaneous; conditions: in vivo
[18] = system: Squirrel monkey; experiment: Neuroleptic activity in squirrel monkey assessed as inhibition of Sidman avoidance at 5 mg/kg, po measured for 4 hrs; assay type: functional; conditions: Saimiri sciureus, in Primates
[19] = system: Rattus norvegicus; experiment: Neuroleptic activity in po dosed Long-Evans rat assessed as increase in escape failure; assay type: functional
[20] = system: Squirrel monkey; experiment: Neuroleptic activity in squirrel monkey assessed as inhibition of Sidman avoidance at 20 mg/kg, po measured for 4 hrs; assay type: functional; conditions: Saimiri sciureus, in Primates
[21] = system: Rattus norvegicus; experiment: Neuroleptic activity in po dosed Long-Evans rat assessed as inhibition of pole-climb avoidance; assay type: functional
[22] = system: Squirrel monkey; experiment: Neuroleptic activity in squirrel monkey assessed as inhibition of Sidman avoidance at 20 mg/kg, po measured for 4 hrs in presence of anticholinergic agent benztropine; assay type: functional, organism-based; set-up: dose 20 mg/kg; conditions: Saimiri sciureus
[23] = system: Squirrel monkey; experiment: Neuroleptic activity in squirrel monkey assessed as inhibition of Sidman avoidance at 2.5 mg/kg, po measured for 4 hrs; assay type: functional; conditions: Saimiri sciureus, in Primates
[24] = system: Rattus norvegicus; experiment: Increase in amphetamine-induced circling in Wistar rat at 5 mg/kg, ip administered 60 mins prior to amphetamine challenge; assay type: functional; conditions: route intraperitoneal

Structure (SMILES)	ED50 [1]	ED50 [2]	ED50 [3]	ED50 [4]	ED50 [5]	ED50 [6]	ED50 [10]	further results
CN1C(=O)CN=C(c2ccccc2)c2cc(Cl)ccc21 [DIAZEPAM]	13.4 mg/kg	24.5 mg/kg	–	–	–	–	–	–
O=C(CCCN1CCC2(CC1)OC(c1ccccc1)c1ccccc12)c1ccc(F)cc1 (configuration not stated)	8.6 mg/kg	> 40 mg/kg	0.15 mg/kg	6.2 mg/kg	4.8 mg/kg	2.6 mg/kg	–	–
O=C(CCCN1CCC2(CC1)OC(c1ccc(F)cc1)c1ccc(F)cc12)c1ccc(F)cc1 (configuration not stated)	18.6 mg/kg	> 40 mg/kg	–	–	2.2 mg/kg	9.7 mg/kg	–	Ratio ED50 [7]: 10; inhibition at 0.5 mg/kg [8]: 50%
O=C(CCCN1CCC2(CC1)OC(c1ccccc1)c1ccc(F)cc12)c1ccc(F)cc1 (configuration not stated)	0.95 mg/kg	31.1 mg/kg	0.047 mg/kg	2.7 mg/kg	–	4.6 mg/kg	–	–
O=C(CCCN1CCC(O)(c2ccc(Cl)cc2)CC1)c1ccc(F)cc1 [HALOPERIDOL]	0.53 mg/kg	7.3 mg/kg	0.06 mg/kg	0.35 mg/kg	–	0.1 mg/kg	0.21 mg/kg	inhibition in vivo at 1 mg/kg [9]: 30%; inhibition in vivo at 0.75 mg/kg [11]: 2%; ED50 [12]: 0.2 mg/kg; inhibition in vivo at 1.25 mg/kg [13]: 50%
COc1ccc2c(c1)C1(CCN(CCCC(=O)c3ccc(F)cc3)CC1)OC2c1ccccc1 (configuration not stated)	–	–	–	–	> 10 mg/kg	–	–	inhibition in vivo at 10 mg/kg [14]: 77%
CSc1ccc2c(c1)N(CCC1CCCCN1C)c1ccccc1S2 (configuration not stated) [THIORIDAZINE]	13.8 mg/kg	> 60 mg/kg	–	–	–	13.3 mg/kg	15.8 mg/kg	inhibition in vivo at 20 mg/kg [15]: 15%
O=C(CCCN1CCC2(CC1)OC(c1ccccc1)c1ccc(Cl)cc12)c1ccc(F)cc1 (configuration not stated)	–	–	0.05 mg/kg	2.3 mg/kg	–	3.5 mg/kg	–	inhibition in vivo at 5 mg/kg [16]: 47%
O=C(CCCN1CCC2(CC1)OC(c1ccc(F)cc1)c1ccccc12)c1ccc(F)cc1 (configuration not stated)	–	–	> 5 mg/kg	–	3.7 mg/kg	11.9 mg/kg	11.8 mg/kg	Ratio ED50 [7]: 10; Activity [17]: Non-toxic; inhibition in vivo at 5 mg/kg [18]: 21%; ED50 [19]: 16.2 mg/kg; inhibition in vivo at 20 mg/kg [20]: 90%; ED50 [21]: 4.3 mg/kg; inhibition [22]: inactive; inhibition in vivo at 10 mg/kg [14]: 17%
COc1ccc2c(c1)C(c1ccccc1)OC21CCN(CCCC(=O)c2ccc(F)cc2)CC1 (configuration not stated)	9.8 mg/kg	> 40 mg/kg	> 1 mg/kg	9.5 mg/kg	–	9.9 mg/kg	6.97 mg/kg	Ratio ED50 [7]: 10; Activity [17]: Non-toxic; inhibition in vivo at 2.5 mg/kg [23]: 29%
COc1ccc(C2OC3(CCN(CCCC(=O)c4ccc(F)cc4)CC3)c3ccccc32)cc1 (configuration not stated)	17.2 mg/kg	> 40 mg/kg	0.16 mg/kg	–	3 mg/kg	10.2 mg/kg	–	–
CN(C)CCCN1c2ccccc2Sc2ccc(Cl)cc21 [CHLORPROMAZINE]	5.2 mg/kg	9 mg/kg	12.8 mg/kg	2.3 mg/kg	7.5 mg/kg	2.2 mg/kg	1.7 mg/kg	inhibition in vivo at 5 mg/kg [18]: 54%; inhibition in vivo at 2.5 mg/kg [23]: 11%; ED50 [12]: 5.4 mg/kg
CCCC(C)C1(CC)C(=O)N=C([O-])NC1=O.[Na+] (configuration not stated) [PENTOBARBITAL SODIUM]	23.7 mg/kg	24.1 mg/kg	–	–	–	–	–	–
O=C(CCCN1CCC2(CC1)OC(c1ccc(Cl)cc1)c1ccccc12)c1ccc(F)cc1 (configuration not stated)	> 20 mg/kg	–	> 10 mg/kg	> 10 mg/kg	–	–	–	Activity [24]: 47%
